Among the test systems are A498 renal; ACHN renal; HCC-2998 colon; HCT-116 colon; HCT-15 colon; HOP-62 NSCLC; MDA-N; MOLT-4 leukemia; PC-3 prostate; UACC-62 melanoma.
Holding throughout (test): NCI anticancer screen, dose series, 48 h

Data on 20 molecules can be found in PubChem BioAssay (NCI).

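Where inhibition never reached the appropriate level, the endpoint shown equals the highest concentration tested. Otherwise, values were interpolated linearly from a five-concentration, 48-hour dose response in 96-well plates. TGI: concentration producing complete growth inhibition.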 *1 amine or outer side, *2 acyl side, *3 side chain or, on linkers, in order; H or OH if unused. Where a SMILES comes first, the peptide text is derived from it. Bridges are numbered along the chain shown (N, C = ends). Roman numbers before positions name the chains, in order. [ ]: non-standard residue; d: D form. Actinocin(9to1) = Cc1c2oc3c(C)ccc(C(=O)[*:1])c3nc-2c(C(=O)[*:2])c(N)c1=O; NMeV = CN[CH](C(=O)O)C(C)C; Sar = CNCC(=O)O

Take `C[C@]12[C@@H]3CC[C@H]1[C@@H](O)C(=O)N2CC3`: the TGI with A498 renal, in the experiment with ACHN renal, in the experiment with HCC-2998 colon, in the experiment on HCT-116 colon, in the experiment on HCT-15 colon and in the experiment on HOP-62 NSCLC was over 100 µM throughout. The TGI with MDA-N, with MOLT-4 leukemia, in the experiment with PC-3 prostate and in the experiment with UACC-62 melanoma was over 100 µM in each case.

In the case of `Cc1c2oc3c(C)ccc(C(=O)NC4C(=O)NC(C(C)C)C(=O)N5CCCC5C(=O)N(C)CC(=O)N(C)C(C(C)C)C(=O)OC4C)c3nc-2c(C(=O)NC2C(=O)NC(C(C)C)C(=O)N3CCCC3C(=O)N(C)CC(=O)N(C)C(C(C)C)C(=O)OC2C)c(N)c1=O` (stereo not given) (I: TVP[Sar][NMeV] / II: TVP[Sar][NMeV]; ester I:1-I:C, II:1-II:C; linker I:N-II:N via Actinocin(9to1); configuration not given here), the TGI in the experiment with A498 renal is 0.0152 µM; in the experiment with HCC-2998 colon, 0.0272 µM; in the experiment with HCT-116 colon, over 1 µM; in the experiment with HCT-15 colon, over 1 µM; with HOP-62 NSCLC it was 0.00696 µM; in the experiment on MDA-N, 0.0094 µM. Moreover, the TGI with MOLT-4 leukemia turned out to be 0.00137 µM; in the experiment with PC-3 prostate, 0.0317 µM; in the experiment with UACC-62 melanoma it was 0.00192 µM.

For `Cc1cn(C2OC(CO[Si](C)(C)C(C)(C)C)C(N(C)O[Si](C)(C)C(C)(C)C)C2[Se]c2ccccc2)c(=O)[nH]c1=O` (stereo not given), the TGI in the experiment on A498 renal stood at 49.5 µM; in the experiment on ACHN renal it was 18.3 µM; in the experiment with HCC-2998 colon, 0.491 µM; with HCT-116 colon it was 19.9 µM; in the experiment with HCT-15 colon, 30.1 µM; in the experiment on HOP-62 NSCLC, 43.1 µM. The TGI is over 100 µM in the experiment on MDA-N, over 100 µM in the experiment with MOLT-4 leukemia, 34 µM in the experiment on PC-3 prostate and 42.4 µM in the experiment on UACC-62 melanoma.

With `CC(N)/C(N)=N/O` (stereo not given), the TGI in the experiment with A498 renal, in the experiment on ACHN renal, in the experiment with HCC-2998 colon, in the experiment with HCT-116 colon, with HCT-15 colon and in the experiment with HOP-62 NSCLC was over 100 µM each time. For the same molecule, the TGI in the experiment with MDA-N, in the experiment on PC-3 prostate and in the experiment on UACC-62 melanoma was over 100 µM throughout.

For `O=C(C(=O)n1ccc2ccccc21)n1ccc2ccccc21`, the TGI in the experiment with A498 renal, in the experiment on ACHN renal, in the experiment on HCC-2998 colon, in the experiment with HCT-116 colon, with HCT-15 colon and with HOP-62 NSCLC was over 100 µM in each case. Further, the TGI with MDA-N, in the experiment with MOLT-4 leukemia, in the experiment on PC-3 prostate and in the experiment on UACC-62 melanoma was over 100 µM each time.

In the case of `CCCCCCc1cc2cc(-c3cn4ccsc4n3)c(=O)oc2cc1O`, the TGI with A498 renal, with ACHN renal, with HCC-2998 colon, in the experiment on HCT-116 colon, with HCT-15 colon and in the experiment with HOP-62 NSCLC was over 100 µM each time. Also, the TGI in the experiment with MDA-N is over 22.8 µM; in the experiment on MOLT-4 leukemia, over 100 µM; in the experiment on PC-3 prostate it was over 100 µM; in the experiment with UACC-62 melanoma, over 50.8 µM.

As to `CC1(C)[C@@H](Cn2cc(I)c(=O)[nH]c2=O)CC[C@@]1(C)CO`, the TGI in the experiment with A498 renal, in the experiment with ACHN renal, in the experiment with HCC-2998 colon, with HCT-116 colon, with HCT-15 colon and in the experiment with HOP-62 NSCLC was over 100 µM in each case. Further, the TGI in the experiment on MDA-N, in the experiment with PC-3 prostate and in the experiment with UACC-62 melanoma was over 100 µM each time.

Take `CC(=O)CC1CCC(=O)/C=C/C(=O)OC(CC(C)=O)CCC(=O)/C=C/C(=O)O1` (stereo not given): the TGI stood at 33.7 µM in the experiment on A498 renal; 11.2 µM with ACHN renal; 39.4 µM in the experiment on HCC-2998 colon; 9.08 µM with HCT-116 colon; 4.16 µM in the experiment with HCT-15 colon; 42.8 µM with HOP-62 NSCLC. The TGI was 24 µM in the experiment on MDA-N, over 100 µM in the experiment with MOLT-4 leukemia, 28.6 µM in the experiment on PC-3 prostate and 29.1 µM with UACC-62 melanoma.

With `COC(=O)CC(C)(NS(=O)c1ccc(C)cc1)c1ccccc1` (stereo not given), the TGI in the experiment with A498 renal, in the experiment on ACHN renal, in the experiment with HCC-2998 colon, in the experiment with HCT-116 colon, in the experiment with HCT-15 colon and in the experiment with HOP-62 NSCLC was over 100 µM in each case. For the same molecule, the TGI in the experiment on MDA-N, in the experiment on MOLT-4 leukemia, in the experiment with PC-3 prostate and in the experiment with UACC-62 melanoma was over 100 µM throughout.

`C=C1c2nc3ccccc3n2C=C(c2ccc(OC)cc2)N1c1ccc(OC)cc1`: the TGI was 64.9 µM in the experiment with A498 renal; 25 µM with ACHN renal; over 100 µM with HCC-2998 colon; 74.4 µM in the experiment with HCT-116 colon; over 100 µM with HCT-15 colon; over 100 µM in the experiment with MDA-N. Besides, the TGI in the experiment with MOLT-4 leukemia is over 100 µM; in the experiment on PC-3 prostate, over 100 µM; in the experiment with UACC-62 melanoma it was 51.8 µM.

With `CC(C)C(NC(=O)Oc1ccccc1)C(=O)NC1c2c(Br)sc(Br)c2C(=O)C1O` (stereo not given), the TGI is over 25 µM in the experiment with A498 renal; 10.2 µM with ACHN renal; 7.68 µM with HCC-2998 colon; 7.34 µM with HCT-116 colon; 8.39 µM in the experiment with HCT-15 colon; over 25 µM with MDA-N. Besides, the TGI was over 25 µM in the experiment on MOLT-4 leukemia, over 25 µM in the experiment on PC-3 prostate and 8.08 µM in the experiment on UACC-62 melanoma.

For the molecule `COc1ccc(S(=O)(=O)n2c3c(c4ccccc42)[C@@H]2[C@@H](CCCN2C(=O)CS(=O)c2ccc(C)cc2)[C@H](Cl)C3)cc1` (stereo not given in full), the TGI with A498 renal, with HCC-2998 colon, in the experiment on HCT-116 colon, with HCT-15 colon, in the experiment on HOP-62 NSCLC and with MDA-N was over 100 µM each time. Moreover, the TGI in the experiment with MOLT-4 leukemia, in the experiment with PC-3 prostate and in the experiment with UACC-62 melanoma was over 100 µM throughout.

For `O=C1c2cc3c(cc2CC12Cc1ccc4c(c1C2=O)CCC4)CCCC3` (stereo not given), the TGI in the experiment on A498 renal, with ACHN renal, in the experiment on HCC-2998 colon, in the experiment on HCT-116 colon, in the experiment on HCT-15 colon and in the experiment on HOP-62 NSCLC was over 100 µM throughout. In addition, the TGI with MDA-N, in the experiment with MOLT-4 leukemia and in the experiment with PC-3 prostate was over 100 µM in each case.

As for `N#Cc1nc(-c2cnccn2)oc1N`, the TGI in the experiment with A498 renal, in the experiment on ACHN renal, in the experiment on HCT-116 colon, with HCT-15 colon, with HOP-62 NSCLC and in the experiment with MDA-N was over 100 µM each time. Further, the TGI in the experiment on MOLT-4 leukemia, in the experiment on PC-3 prostate and in the experiment with UACC-62 melanoma was over 100 µM throughout.

Take `CC(C)=C[C@H]1C[C@H](C)[C@H]2CC[C@H](C)c3c2c1c(C)c1ncoc31`: the TGI is 34.9 µM with A498 renal; 32.7 µM with ACHN renal; 35.8 µM in the experiment on HCC-2998 colon; 33.6 µM with HCT-116 colon; 34.8 µM in the experiment with HCT-15 colon; 34.2 µM in the experiment on MDA-N. In addition, the results for the TGI in the experiment with MOLT-4 leukemia, with PC-3 prostate and in the experiment on UACC-62 melanoma were 32.3 µM, 35.2 µM and 32.9 µM, respectively.

`Cc1ccc(S[C@@H](C)[C@@](O)(CF)CN(Cc2ccccc2)C(=O)C(F)(F)F)cc1`: the TGI in the experiment with A498 renal came to 29.7 µM; with ACHN renal, 60.3 µM; in the experiment on HCC-2998 colon, 41.5 µM; in the experiment on HCT-116 colon, 27.3 µM; in the experiment on HCT-15 colon, 55.5 µM; in the experiment with MDA-N, 62.7 µM. The results for the TGI in the experiment with PC-3 prostate and in the experiment with UACC-62 melanoma were 94.3 µM and 34.8 µM, respectively.

With `CCOC(=O)C12OC(OCC)(CC1(OCC)OCC)C1(CC1)C2=O` (stereo not given), the TGI in the experiment on A498 renal, in the experiment on ACHN renal, with HCC-2998 colon, with HCT-116 colon, in the experiment with HCT-15 colon and in the experiment on HOP-62 NSCLC was over 100 µM throughout. In addition, the TGI in the experiment on MDA-N, in the experiment with MOLT-4 leukemia and with PC-3 prostate was over 100 µM throughout.

As for `CCOC(=O)c1csc(NC(=O)CN2CCCC2)n1`, the TGI with A498 renal, in the experiment on ACHN renal, with HCC-2998 colon, with HCT-15 colon, in the experiment on HOP-62 NSCLC and in the experiment on MDA-N was over 100 µM each time. In addition, the TGI with MOLT-4 leukemia, in the experiment on PC-3 prostate and in the experiment on UACC-62 melanoma was over 100 µM each time.

Consider `O=C(O)Cc1ccc([N+](=O)[O-])cc1[N+](=O)[O-]`, for which the TGI in the experiment with A498 renal, with ACHN renal, in the experiment on HCT-116 colon, in the experiment on HCT-15 colon, with HOP-62 NSCLC and in the experiment with MDA-N was over 100 µM each time. Besides, the TGI in the experiment on MOLT-4 leukemia, in the experiment on PC-3 prostate and in the experiment on UACC-62 melanoma was over 100 µM throughout.

`CO[C@](C(=O)OC[C@H]1[C@@H](COC(C)=O)[C@@H]2O[C@H]1c1cc3c(cc12)OCO3)(c1ccccc1)C(F)(F)F`: the TGI in the experiment on A498 renal was over 100 µM; in the experiment on HCC-2998 colon, 71.9 µM; with HCT-116 colon, over 100 µM; in the experiment with HCT-15 colon it was over 100 µM; in the experiment on HOP-62 NSCLC, 73.6 µM; in the experiment with MDA-N, over 100 µM. Also, the TGI in the experiment on MOLT-4 leukemia, in the experiment on PC-3 prostate and in the experiment on UACC-62 melanoma was over 100 µM each time.
